Laboratory results published in patent publication US20050227980A1, “Aralkyl and aralkylidene heterocyclic lactam and imides” (Pfizer Inc., priority 2003, published 2005).
Counter-ions that a name gives are not always drawn.

| SMILES | melting point |
| --- | --- |
| CN1CCN(c2cccc(C(F)(F)F)c2C=C2OCCN(c3ccc(C(C)(C)C)cc3)C2=O)CC1.Cl | 205 °C (dec.) |
| CN1CCN(c2cccc(Cl)c2C=C2OCCN(c3ccc(C(C)(C)C)cc3)C2=O)CC1.Cl | 139 to 142 °C |
| CC(C)c1ccc(N2CCOC(Cc3ccccc3N3CCN(C)CC3)C2=O)cc1.Cl (racemic) | 185.7 to 188.1 °C |
| CN1CCN(c2ccccc2C=C2OCCN(Cc3ccc(C(C)(C)C)cc3)C2=O)CC1 [Example 20, 4-(4-tert-Butyl-benzyl)-2-[2-(4-methylpiperazin-1-yl)-benzylidene]-morpholin-3-one] | 68 to 70 °C |
| CN1CCN(c2c(F)cccc2C=C2OCCN(c3ccc(C(C)(C)C)cc3)C2=O)CC1 [Example 12, 4-(4-tert-Butyl-phenyl)-2-[3-fluoro-2-(4-methylpiperazin-1-yl)-benzylidene]-morpholin-3-one] | 184.3 to 187.1 °C |
| CN1CCN(c2cccc(Cl)c2CC2OCCN(c3ccc(C(C)(C)C)cc3)C2=O)CC1.Cl (racemic) | 215 °C (dec.) |
| CC1CN(c2ccccc2C=C2OCCN(c3ccc(C(C)(C)C)cc3)C2=O)CC(C)N1C (stereo not drawn) [Example 6, 2-[2-(3,4,5-Trimethylpiperazin-1-yl)-benzylidene]-4-(4-tert-butylphenyl)-morpholin-3-one] | 167 to 168 °C |
| CN1CCN(c2cc(C(F)(F)F)ccc2C=C2OCCN(c3ccc(C(C)(C)C)cc3)C2=O)CC1 [Example 14, 4-(4-tert-Butyl-phenyl)-2-[2-(4-methylpiperazin-1-yl)-4-trifluoromethyl-benzylidene]-morpholin-3-one] | 186.3 to 191.9 °C |
| CN1CCN(c2ccccc2CC2OCCN(c3ccc(-c4ccccc4)cc3)C2=O)CC1.Cl (racemic) | 219.4 to 222.2 °C |
| CC(C)c1ccc(N2CCOC(=Cc3ccccc3N3CCN(C)CC3)C2=O)cc1 [Example 3, 2-[2-(4-Methylpiperazin-1-yl)-benzylidene]-4-(4-isopropylphenyl)-morpholin-3-one] | 155 to 156 °C |
| CN1CCN(c2ccccc2CC2OCCN(Cc3ccc(C(C)(C)C)cc3)C2=O)CC1.Cl (racemic) | 215 to 216 °C |
| CN1CCN(c2ccccc2C=C2OCCN(c3ccc(C(C)(C)C)cc3)C2=O)CC1 [Example 5, 2-[2-(4-Methylpiperazin-1-yl)-benzylidene]-4-(4-tert-butylphenyl)-morpholin-3-one] | 169 to 171 °C |
| Cc1ccc(N2CCN(C)CC2)c(C=C2OCCN(c3ccc(C(C)(C)C)cc3)C2=O)c1 [Example 15, 4-(4-tert-Butyl-phenyl)-2-[5-methyl-2-(4-methylpiperazin-1-yl)-benzylidene]-morpholin-3-one] | 209.2 to 211 °C |
| CN1CCN(c2cc(Cl)ccc2C=C2OCCN(c3ccc(C(C)(C)C)cc3)C2=O)CC1 [Example 10, 4-(4-tert-Butyl-phenyl)-2-[4-chloro-2-(4-methylpiperazin-1-yl)-benzylidene]-morpholin-3-one] | 209 to 210.8 °C |
| CC1CN(c2ccccc2CC2OCCN(c3ccc(C(C)(C)C)cc3)C2=O)CC(C)N1C.Cl (racemic) | 135 °C (dec.) |
| CN1CCN(c2cccc(F)c2C=C2OCCN(c3ccc(C(C)(C)C)cc3)C2=O)CC1.Cl | 187.5 to 192.6 °C |

More lines, now with the values ahead:

| melting point | SMILES |
| --- | --- |
| 136 to 138 °C | CN1CCN(c2ccc(C(F)(F)F)cc2CC2OCCN(c3ccc(C(C)(C)C)cc3)C2=O)CC1.Cl (stereo not drawn) [Example 32 (+)] |
| 178 to 181.4 °C | CN1CCN(c2cccc(F)c2CC2OCCN(c3ccc(C(C)(C)C)cc3)C2=O)CC1.Cl (stereo not drawn) [Example 28 (−)] |
| 155.9 to 159.9 °C | CN1CCN(c2cc(F)ccc2CC2OCCN(c3ccc(C(C)(C)C)cc3)C2=O)CC1.Cl (racemic) [Example 29 (±)] |
| 190.5 to 192.1 °C | CN1CCN(c2cccc(F)c2CC2OCCN(c3ccc(C(C)(C)C)cc3)C2=O)CC1.Cl (racemic) [Example 28 (±)] |
| 92 to 93 °C | Cc1ccc(N2CCN(C)CC2)c(CC2OCCN(c3ccc(C(C)(C)C)cc3)C2=O)c1 (single isomer, unassigned; (+)) [Example 31 (+), (+)-4-(4-tert-Butyl-phenyl)-2-[5-methyl-2-(4-methylpiperazin-1-yl)-benzyl]-morpholin-3-one] |
| 107 to 108.7 °C | CN1CCN(c2c(F)cccc2CC2OCCN(c3ccc(C(C)(C)C)cc3)C2=O)CC1.Cl (racemic) [Example 30 (±)] |
| 128.5 to 129.9 °C | CN1CCN(c2c(F)cccc2CC2OCCN(c3ccc(C(C)(C)C)cc3)C2=O)CC1.Cl (stereo not drawn) [Example 30 (−)] |
| 161.9 to 163.5 °C | CN1CCN(c2cc(Cl)ccc2CC2OCCN(c3ccc(C(C)(C)C)cc3)C2=O)CC1 (racemic) [Example 27 (±), (±)-4-(4-tert-Butyl-phenyl)-2-[4-chloro-2-(4-methylpiperazin-1-yl)-benzyl]-morpholin-3-one] |
| 165.8 to 171.2 °C | CN1CCN(c2ccccc2CC2OCCN(c3ccc(C(C)(C)C)cc3)C2=O)CC1.Cl (single isomer, unassigned) [Example 24 (+)] |
| 104.7 °C (dec.) | CN1CCN(c2c(F)cccc2CC2OCCN(c3ccc(C(C)(C)C)cc3)C2=O)CC1.Cl (stereo not drawn) [Example 30 (+)] |
| 145.1 to 146.2 °C | CN1CCN(c2ccc(C(F)(F)F)cc2CC2OCCN(c3ccc(C(C)(C)C)cc3)C2=O)CC1 (racemic) [Example 32 (±), (±)-4-(4-tert-Butyl-phenyl)-2-[2-(4-methylpiperazin-1-yl)-5-trifluoromethyl-benzyl]-morpholin-3-one] |
| 176.9 to 179.3 °C | CN1CCN(c2cccc(F)c2CC2OCCN(c3ccc(C(C)(C)C)cc3)C2=O)CC1.Cl (stereo not drawn) [Example 28 (+)] |
| 159.5 to 161.7 °C | CN1CCN(c2cc(Cl)ccc2CC2OCCN(c3ccc(C(C)(C)C)cc3)C2=O)CC1.Cl (stereo not drawn) [Example 27 (+)] |
| 156.2 to 158.1 °C | CN1CCN(c2cc(F)ccc2CC2OCCN(c3ccc(C(C)(C)C)cc3)C2=O)CC1.Cl (stereo not drawn) [Example 29 (−)] |
| 86 to 88 °C | Cc1ccc(N2CCN(C)CC2)c(CC2OCCN(c3ccc(C(C)(C)C)cc3)C2=O)c1 (single isomer, unassigned; (-)) [Example 31 (−), (−)-4-(4-tert-Butyl-phenyl)-2-[5-methyl-2-(4-methylpiperazin-1-yl)-benzyl]-morpholin-3-one] |
| 128 to 130 °C | CN1CCN(c2ccc(C(F)(F)F)cc2CC2OCCN(c3ccc(C(C)(C)C)cc3)C2=O)CC1.Cl (stereo not drawn) [Example 32 (−)] |
| 187.1 to 191.2 °C | CN1CCN(c2ccccc2CC2OCCN(c3ccc(C(C)(C)C)cc3)C2=O)CC1.Cl (single isomer, unassigned) [Example 24 (−)] |
| 159 to 161.8 °C | CN1CCN(c2cc(Cl)ccc2CC2OCCN(c3ccc(C(C)(C)C)cc3)C2=O)CC1.Cl (stereo not drawn) [Example 27 (−)] |
| 179 to 180 °C (dec.) | CN1CCN(c2ccccc2CC2OCCN(c3ccc(C(C)(C)C)cc3)C2=O)CC1 (racemic) (as salt: tartrate) [Example 23, (±)-4-(4-tert-Butyl-phenyl)-2-[2-(4-methylpiperazin-1-yl)-benzyl]-morpholin-3-one] |
| 157.4 to 159.6 °C | CN1CCN(c2cc(F)ccc2CC2OCCN(c3ccc(C(C)(C)C)cc3)C2=O)CC1.Cl (stereo not drawn) [Example 29 (+)] |
